{
  "source": "paper PMC5011688",
  "about": "“Polysaccharide enhances Radix Saposhnikoviae efficacy through inhibiting chromones decomposition in intestinal tract” (Scientific Reports, 2016)",
  "key": {"[1]": {"experiment": "Transport of chromones across semi-permeable membrane (dialysis bag) with or without RS polysaccharide", "format": "physicochemical", "settings": "6 h; for total chromone: inside plus outside the membrane; for total chromone / Fluid inside the semi-permeable membrane, chromone / Fluid outside the semi-permeable membrane, chromone: pH 7.8, 37 °C; for Fluid inside the semi-permeable membrane, chromone / Fluid outside the semi-permeable membrane, chromone: sum of PGCN and cimifugin", "method": "Dialysis bags made by semi-permeable membrane materials were used in this analysis. ~3 cm long dialysis bags were first processed as the following procedures in succession: 1) boiled for 5 min in distilled water; 2) rinsed by 60 °C water for 2 min; 3) rinsed by small intestine buffer for 2 min; 4) rinsed by small intestine buffer for 2 min; 5) immersed in buffer at 4 °C. After 12 h, these processed dialysis bags were tied tightly at one end to form a dialysis bag. 1 ml small intestine buffer (pH 7.8) containing cimifugin, PGCN, cimifugin + polysaccharide, or PGCN + polysaccharide was added into this bag and a glass bead was put in to keep this bag vertical. When the other end was tied (an air bubble was retained), this dialysis bag was suspended in 15 ml small intestine buffer. This system was left to stand for 6 h in 37 °C water bath and chromone content inside and outside of this semi-permeable membrane was measured by HPLC analysis."}, "[2]": {"tested_on": "Caco-2 cell monolayers", "experiment": "Caco-2 bidirectional transport assay of cimifugin", "format": "in vitro ADME", "settings": "for effect on flux/transport of cimifugin across Caco-2 monolayers: pretreatment or co-application with cimifugin, A→B flux, similar for B→A", "method": "Caco-2 cells were obtained from the American Type Culture Collection (ATCC). […] For the permeability test, cells were seeded in transwell supports with polycarbonate membrane (0.4 μm, 1.12 cm^2, Corning Costar) at a density of 6 × 10^4 cells/cm^2. The integrity of the monolayers was tested by measuring the transepithelial electrical resistance (TEER) before and after every experiment. Only monolayers with TEER >200 Ω/cm^2 were used. Test compounds in transport buffer were added to the donor compartments of either apical (A → B) or basolateral (B → A) wells of the Insert System and incubated at 37 °C. Samples were collected at 0, 30, 60, 90, 120, and 150 min time points and analyzed for HPLC analysis of content of cimifugin as described above."}, "[3]": {"experiment": "Pharmacokinetic measurement of chromone (cimifugin in rat plasma after oral chromone extracts)", "format": "in vivo, Sprague-Dawley rats", "settings": "for Tmax: male, Sprague-Dawley, rat, plasma, po, 4 g crude drug/kg, oral chromone extracts 4 g crude drug/kg for 5 days, plasma HPLC", "method": "To explore the influence of RS polysaccharide on the pharmacokinetics of chromones, 2.11 g, 1.05 g RS polysaccharide, and 2.11 g glucuronic acid were added to the three aliquots of chromone components, with one aliquot left as control. Thus, totally four test compounds were obtained, including chromone/pan-polysaccharide (CP), chromone/1/2polysaccharide (CHP), chromone/glucuronic acid (CG), and chromone, which served as control. Forty male Sprague-Dawley rats were used in this experiment. They were randomly divided into 4 groups, each consisting of 10 rats. The rats in these four groups were orally administered with CP, CHP, CG and chromones at the dose of 4 g crude drug (equivalent to 10 ml RS extracts) per kg body weight, respectively for five consecutive days. After the final drug delivery of day 5 (at 0.5, 1, 1.5, 2, 3, 5, 8, 12, 16, and 24 h/day), rats were anesthetized by ether inhalation and rat blood samples were obtained from the orbit vein and centrifuged immediately at 3,000 rpm for 10 min to yield plasma. Each plasma sample (100 μl) was mixed with 20 μl of 70% perchloric acid and vortexed and centrifuged at 3,000 rpm for 10 min. The supernatant were subjected to 0.45 μm microporous membrane and the filtrate was collected for subsequent high performance liquid chromatography (HPLC) analysis. Chromatographic separation and analysis using an L-2000 Elite HPLC system has been previously reported. Briefly, the separation of the analytes were performed on a Kromasil C18 column (200 mm × 4.6 mm i.d., particle size 5 μm), equipped with a Shim-pack security guard column at a column temperature of 25 °C. The binary mobile phase consisted of methanol and water. A flow rate of 1.0 ml/min with a gradient elution program as follows: 40–45% methanol at 0–5 min; 45–60% methanol at 5–10 min; 60–80% methanol at 10–15 min; 80–95% methanol at 15–20 min; 95–40% methanol at 20–30 min. The injection volume was 20 μl and detection wavelength was kept at 254 nm."}, "[4]": {"experiment": "Transformation of cimifugin in small intestine enzyme solution", "format": "in vitro ADME, Sprague-Dawley rats", "settings": "38 °C", "method": "Small intestine segment was taken from ten 12 h-fasting male Sprague-Dawley rats. The intestine tissue was first frozen at −80 °C for 12 h, and then ground and centrifuged at 10,000 rpm for 10 min. The supernatant constituted the enzyme solution used in the experiment. To explore the influence of RS polysaccharide on the metabolism of cimifugin, three groups were designed: control group containing 40 μg cimifugin in 1.2 ml enzyme solution; RS polysaccharide/cimifugin group containing 40 μg cimifugin and 8.7 mg RS polysaccharide in 1.2 ml enzyme solution; glucuronic acid/cimifugin group containing 40 μg cimifugin and 8.7 mg glucuronic acid in 1.2 ml enzyme solution. These groups were put in 38 °C water bath for reaction, while samples were taken at 15 and 30 min. After deproteinization by methanol, these samples were centrifuged at 10,000 rpm for 10 min. Subsequently, the supernatant was collected and analyzed for HPLC analysis as described above."}, "[5]": {"experiment": "Metabolism study of PGCN and GML in simulated gastric fluid (SGF)", "format": "in vitro ADME", "settings": "SGF pH 1.2, 37 °C, 2 h", "method": "(§1) Simulated gastric fluid (SGF, pH 1.2) and simulated intestinal fluid (SIF, pH 6.8) were prepared based on Chinese Pharmacopeia (2010) and have been depicted previously. 100 μg PGCN or GML was added to 4 ml of either SGF or SIF to yield 4 reaction systems, i.e., PGCN/SGF (213.47 nM), PGCN/SIF (213.47 nM), GML/SGF (220.99 nM), GML/SIF (220.99 nM), respectively. Polysaccharides extracted in RS were added to these 4 reaction systems in accordance with the actual chromone-polysaccharide proportion, with each reaction further became three sub-systems, i.e., 0 polysaccharide/chrome, 1/2 polysaccharide/chromone, and pan-polysaccharide/chromone. Meanwhile, these 12 systems were allowed to react at 37 °C. Following 2 h, the reaction was stopped by 100 °C boiling for 10 min. Subsequently, these systems were evaporated to dryness and the residue was reconstituted in 1 ml methanol. After centrifugation at 3,000 rpm for 10 min, the supernatant was collected and used for HPLC analysis."}, "[6]": {"experiment": "Metabolism study of PGCN and GML in simulated intestinal fluid (SIF)", "format": "in vitro ADME", "settings": "SIF pH 6.8, 37 °C, 2 h", "method": "as §1"}, "[7]": {"settings": "small intestine buffer pH 7.8, 37 °C, mean ± SD, n = 10"}, "[8]": {"settings": "apical application (A→B), A: cimifugin, B: polysaccharide, C: LY335979, D: troleandomycin, mean ± SD, n = 10"}, "[9]": {"settings": "basolateral application (B→A), A: cimifugin, B: polysaccharide, C: LY335979, D: troleandomycin, mean ± SD, n = 10"}},
  "note": "Like-named read-outs stand apart in the source and are kept apart here.",
  "data": [
    {"smiles": "COc1c2c(cc3oc(CO)cc(=O)c13)O[C@H](C(C)(C)O)C2", "note": "[cimifugin]", "values": [
      {"measurement": "total chromone", "setting": "[1]", "value": "161.7 ± 0.5", "unit": "nmol"},
      {"measurement": "Fluid inside the semi-permeable membrane, cimifugin", "setting": "[1]; [7]", "value": "18.1 ± 0.6", "unit": "nmol"},
      {"measurement": "Fluid outside the semi-permeable membrane, cimifugin", "setting": "[1]; [7]", "value": "143.6 ± 0.1", "unit": "nmol"},
      {"measurement": "Fluid inside the semi-permeable membrane, chromone", "setting": "[1]", "value": "18.1 ± 0.6", "unit": "nmol"},
      {"measurement": "Fluid outside the semi-permeable membrane, chromone", "setting": "[1]", "value": "143.6 ± 0.1", "unit": "nmol"},
      {"measurement": "Basolateral content of cimifugin, 30 min", "setting": "[2]; [8]", "value": "15.21 ± 2.34", "unit": "ng"},
      {"measurement": "Basolateral content of cimifugin, 60 min", "setting": "[2]; [8]", "value": "30.85 ± 3.64", "unit": "ng"},
      {"measurement": "Basolateral content of cimifugin, 90 min", "setting": "[2]; [8]", "value": "143.92 ± 12.32", "unit": "ng"},
      {"measurement": "Basolateral content of cimifugin, 120 min", "setting": "[2]; [8]", "value": "236.01 ± 22.86", "unit": "ng"},
      {"measurement": "Basolateral content of cimifugin, 150 min", "setting": "[2]; [8]", "value": "201.33 ± 15.32", "unit": "ng"},
      {"measurement": "Apical content of cimifugin, 30 min", "setting": "[2]; [9]", "value": "26.87 ± 1.54", "unit": "ng"},
      {"measurement": "Apical content of cimifugin, 60 min", "setting": "[2]; [9]", "value": "50.45 ± 2.27", "unit": "ng"},
      {"measurement": "Apical content of cimifugin, 90 min", "setting": "[2]; [9]", "value": "234.35 ± 11.36", "unit": "ng"},
      {"measurement": "Apical content of cimifugin, 120 min", "setting": "[2]; [9]", "value": "354.24 ± 15.47", "unit": "ng"},
      {"measurement": "Apical content of cimifugin, 150 min", "setting": "[2]; [9]", "value": "289.46 ± 15.45", "unit": "ng"},
      {"measurement": "Tmax", "setting": "[3]; read-out: Tmax of cimifugin in rat plasma (first peak of double-peak curve)", "value": 1.5, "unit": "h"},
      {"measurement": "Tmax", "setting": "[3]; read-out: Tmax of cimifugin in rat plasma (second peak of double-peak curve)", "value": 8, "unit": "h"},
      {"measurement": "detection in plasma of chromone treated rats (HPLC qualitative analysis)", "setting": "[3]; whole process of the experiment, data not shown", "value": "only cimifugin was detected"},
      {"measurement": "stability in small intestine enzyme solutions (in words)", "setting": "[4]; rat small intestine enzyme solution", "value": "underwent degradation to a great extent"}
    ]},
    {"smiles": "Cl.Cl.Cl.O[C@@H](COc1cccc2ncccc12)CN1CCN([C@@H]2c3ccccc3[C@@H]3[C@H](c4ccccc42)C3(F)F)CC1", "note": "[LY335979, Zosuquidar Trihydrochloride, reference compound]", "values": [
      {"measurement": "effect on flux/transport of cimifugin across Caco-2 monolayers", "setting": "[2]", "value": "not affected"}
    ]},
    {"smiles": "O=C[C@H](O)[C@@H](O)[C@H](O)[C@H](O)C(=O)O", "note": "[glucuronic acid, Glucuronic acid, reference compound]", "values": [
      {"measurement": "effect on absorption of chromone in the form of cimifugin (AUC at 3 h and later)", "setting": "[3]; co-administered orally with chromone extract, rat plasma", "value": "did not affect"},
      {"measurement": "effect on cimifugin degradation / transformation into PGCN in small intestine enzyme solutions (in words)", "setting": "[4]; added to cimifugin in enzyme solution", "value": "did not produce any effect on cimifugin transformation"}
    ]},
    {"smiles": "CO[C@H]1C[C@H](O[C@H]2[C@H](C)[C@@H](O[C@@H]3O[C@H](C)C[C@H](N(C)C)[C@H]3OC(C)=O)[C@@H](C)C[C@@]3(CO3)C(=O)[C@H](C)[C@@H](OC(C)=O)[C@@H](C)[C@@H](C)OC(=O)[C@@H]2C)O[C@@H](C)[C@@H]1OC(C)=O", "note": "[troleandomycin, Troleandomycin, reference compound]", "values": [
      {"measurement": "effect on flux/transport of cimifugin across Caco-2 monolayers", "setting": "[2]", "value": "significantly enhanced"}
    ]},
    {"smiles": "COc1c2c(cc3oc(COC4OC(CO)C(O)C(O)C4O)cc(=O)c13)OC(C(C)(C)O)C2", "note": "(centres unmarked) [PGCN, prime-O-glucosylcimifugin]", "values": [
      {"measurement": "total chromone", "setting": "[1]", "value": "105.0 ± 0.1", "unit": "nmol"},
      {"measurement": "Fluid inside the semi-permeable membrane, PGCN", "setting": "[1]; [7]", "value": "15.2 ± 0.5", "unit": "nmol"},
      {"measurement": "Fluid outside the semi-permeable membrane, PGCN", "setting": "[1]; [7]", "value": "89.8 ± 0.4", "unit": "nmol"},
      {"measurement": "Fluid inside the semi-permeable membrane, chromone", "setting": "[1]", "value": "15.2 ± 0.5", "unit": "nmol"},
      {"measurement": "Fluid outside the semi-permeable membrane, chromone", "setting": "[1]", "value": "89.8 ± 0.4", "unit": "nmol"},
      {"measurement": "transformation in SGF (in words)", "setting": "[5]", "value": "a small amount of PCGN was converted into cimifugin"},
      {"measurement": "transformation in SIF (in words)", "setting": "[6]", "value": "an overwhelmingly large amount of PGCN was transformed into cimifugin"},
      {"measurement": "HPLC peak area, PGCN", "setting": "[6]; mean ± SD, n = 10", "value": "5159 ± 1238"}
    ]},
    {"smiles": "COc1c2c(cc3oc(C)cc(=O)c13)OC(C(C)(C)OC1OC(CO)C(O)C(O)C1O)C2", "note": "[GML, 4′-O-β-D-glucosyl-5-O-methylvisamminol]", "values": [
      {"measurement": "transformation in SGF (in words)", "setting": "[5]", "value": "a little GML was converted into PGCN"},
      {"measurement": "HPLC peak area, GML", "setting": "[5]; mean ± SD, n = 10", "value": "1369608 ± 83550"},
      {"measurement": "transformation in SIF (in words)", "setting": "[6]", "value": "underwent no change"},
      {"measurement": "HPLC peak area, GML", "setting": "[6]; mean ± SD, n = 10", "value": "1369720 ± 112480"}
    ]}
  ]
}
